Structures are written as SMILES. Where a name gives a salt, the structure may show the parent alone. A value given as a limit tells only on which side of the number the result lay.

What all share (format): cell-based
Assay [1] concerns human platelet. The assay is described as follows: ADP-induced aggregation of human platelets (platelet-rich plasma), inhibition. Conditions: human PRP, 20 to 30×1e4 platelets/μl, 37° C., read-out: Inhibitory action for agglutination by ADP IC50. Here is the method:
Inhibity effects on human platelet of the invention derivatives to evaluate the activity for inhibiting aggregation induced by ADP (adenosine diphosphate), thrombin, and fibrinogen were measured in accordance with the procedure as described below. (1) Preparation of platelet-rich plasma, washed platelets, and α-chymotrypsin-treated platelets Human whole blood withdrawn from human elbow vein into 10% volume of 3.8% sodium citrate was centrifuged at 135×g (1100 rpm) for 10 minutes, and the supernatant was collected as platelet-rich plasma (PRP). The residue was further centrifuged at 1600×g (3000 rpm) for 10 minutes, and the supernatant was collected as platelet-poor plasma (PPP). PRP and PPP were used for the measurement of the aggregation induced by ADP. In the meanwhile, PRP was applied to Sepharose CL-2B column (manufacture by Pharmacia) equilibrated with HEPES buffer, pH 7.4 containing 0.5% BSA and 5.5 mM glucose, and the fractions eluted in the void volume were collected as platelet-suspension, and used for the measurement of the aggregation induced by thrombin. In addition, washed platelet were treated with α-chymotrypsin of the final concentration of 10 U/ml for 30 minutes at room temperature. Then, the protease reaction was stopped by the addition of trypsin-chymotrypsin inhibitor (0.5 mg/ml), and α-chymotrypsin-treated platelet-suspension was used for the aggregation induced by fibrinogen. (2) Measurement of ADP-induced aggregation PRP was diluted with PPP to adjust the number of platelets to 20 to 30×1e4/μl, and the aggregation induced by ADP was measured with aggligometer (HEMATRACER VI, manufactured by NBS). 0.2 ml of PRP was placed in the cubette of the aggligometer with 25 μl of the test solution or physiological saline (control), and was incubated at 37° C. for 5 minutes with stirring (1000 rpm). Then, 25 μl of ADP solution was added and the time course of the light transmittance was recorded. The transmittance of PRP and PPP were calibrated as 0 and 100% respectively, and the maximum transmittance after adding the agonist was taken for the maximum aggregation. The concentration of 50% inhibition (IC50) was calculated from the proportion of the maximum aggregation with test solution to physiological saline.

Assay [2] has as its system human platelet. The assay is described as follows: Thrombin-induced aggregation of human platelets (washed platelet suspension), inhibition. The settings on record: HEPES buffer pH 7.4, 2 mM CaCl2 and MgCl2, read-out: Inhibitory action for agglutination by thrombin IC50. Here is the method: (§1) Inhibity effects on human platelet of the invention derivatives to evaluate the activity for inhibiting aggregation induced by ADP (adenosine diphosphate), thrombin, and fibrinogen were measured in accordance with the procedure as described below.
(§2) (1) Preparation of platelet-rich plasma, washed platelets, and α-chymotrypsin-treated platelets
(§3) Human whole blood withdrawn from human elbow vein into 10% volume of 3.8% sodium citrate was centrifuged at 135×g (1100 rpm) for 10 minutes, and the supernatant was collected as platelet-rich plasma (PRP). The residue was further centrifuged at 1600×g (3000 rpm) for 10 minutes, and the supernatant was collected as platelet-poor plasma (PPP). PRP and PPP were used for the measurement of the aggregation induced by ADP. In the meanwhile, PRP was applied to Sepharose CL-2B column (manufacture by Pharmacia) equilibrated with HEPES buffer, pH 7.4 containing 0.5% BSA and 5.5 mM glucose, and the fractions eluted in the void volume were collected as platelet-suspension, and used for the measurement of the aggregation induced by thrombin. In addition, washed platelet were treated with α-chymotrypsin of the final concentration of 10 U/ml for 30 minutes at room temperature. Then, the protease reaction was stopped by the addition of trypsin-chymotrypsin inhibitor (0.5 mg/ml), and α-chymotrypsin-treated platelet-suspension was used for the aggregation induced by fibrinogen.
(3) Measurement of thrombin-induced aggregation
The platelet-suspension was diluted with HEPES buffer, pH 7.4 to adjust the number of platelets to 20 to 30×1e4/μl, and calcium chloride and magnesium chloride were respectively added to 2 mM (final concentration). The aggregation induced by thrombin was measured with this platelet-suspension and HEPES buffer (contrast) by the same procedure as the measurement of the aggregation induced by the ADP. The concentration of 50% inhibition (IC50) was calculated from the proportion of the maximum aggregation with test solution to physiological saline.

In assay [3] the test system is human platelet. As to the kind of experiment: Fibrinogen-induced aggregation of α-chymotrypsin-treated human platelets, inhibition. The settings on record: fibrinogen (0.4 mg/ml), HEPES buffer pH 7.4, PGE1 1 μM, read-out: Inhibitory action for agglutination by fibrinogen IC50. Here is the method: as §1, §2
as §3, with “In addition, washed platelet were treated with α-chymotrypsin of the final concentration of 10 U/ml for 30 minutes at room temperature. Then, the protease reaction was stopped by the addition of trypsin-chymotrypsin inhibitor (0.5 mg/ml), and α-chymotrypsin-treated platelet-suspension was used for the aggregation induced by fibrinogen.” left out
α-chymotrypsin-treated platelet-suspension was diluted with HEPES buffer, pH 7.4 to adjust the number of platelets to 20 to 30×1e4/μl. […] The aggregation induced by fibrinogen (0.4 mg/ml) was measured with this platelet-suspension and the HEPES buffer (contrast). […]

Regarding `O=C(O)CN1CCc2ccc(NC(=O)COC3CCNCC3)cc2C1` [Ex. 1, 7-(piperidine-4-yloxyacetylamino)-2-carboxymethyl-1,2,3,4-tetrahydroisoquinoline], the IC50 with human platelet [1] amounted to 5 µM; with human platelet [2] it was 4.8 µM.

Regarding `O=C(O)CCN1CCc2ccc(NC(=O)COC3CCNCC3)cc2C1` [Ex. 2, 7-(piperidine-4-yloxyacetylamino)-2-carboxyethyl-1,2,3,4-tetrahydroisoquinoline], the IC50 came to 0.097 µM in the assay on human platelet [1], 0.066 µM in the assay with human platelet [2] and 0.038 µM in the assay on human platelet [3].

`O=C(O)CCCN1CCc2ccc(NC(=O)COC3CCNCC3)cc2C1` [Ex. 3, 7-(piperidine-4-yloxyacetylamino)-2-(3-carboxypropyl)-1,2,3,4-tetrahydroisoquinoline]: the IC50 with human platelet [1] and with human platelet [2] was greater than 10 µM throughout.

As to `CN(C(=O)COC1CCNCC1)c1ccc2c(c1)CN(CCC(=O)O)CC2` [Ex. 5, 7-[(piperidine-4-yloxyacetyl)methylamino]-2-[2-(carboxy)ethyl]-1,2,3,4-tetrahydroisoquinoline], the figures for the IC50 in the assay with human platelet [1] and in the assay with human platelet [2] were 81 µM and 43 µM, respectively.

As for `O=C(O)CCN1CCc2ccc(NC(=O)COC3CCNCC3)cc2C1c1ccccc1` (centres unmarked) [Ex. 6, 2-(carbonylethyl)-1-phenyl-7-(piperidine-4-yloxyacetylamino)-1,2,3,4-tetrahydroisoquinoline], the results for the IC50 in the assay with human platelet [1] and with human platelet [2] were 2.9 µM and 1.9 µM, respectively.

Turning to `CC1CC(OCC(=O)Nc2ccc3c(c2)CN(CCC(=O)O)CC3)CC(C)N1` (centres unmarked) [Ex. 7, 7-(2,6-dimethylpiperidine-4-yloxyacetylamino)-2-(2-carboxyethyl)-1,2,3,4-tetrahydroisoquinoline], in the assay on human platelet [1], the IC50 was greater than 10 µM.

`CC1CNCCC1OCC(=O)Nc1ccc2c(c1)CN(CCC(=O)O)CC2` (centres unmarked) [Ex. 8, 7-(3-methylpiperidine-4-yloxyacetylamino)-2-(2-carboxyethyl)-1,2,3,4-tetrahydroisoquinoline]: the IC50 with human platelet [1] is 0.23 µM.

For `CC(CC(=O)O)N1CCc2ccc(NC(=O)COC3CCNCC3)cc2C1` (centres unmarked) [Ex. 9, 7-(piperidine-4-yloxyacetylamino)-2-(2-carboxy-1-methylethyl)-1,2,3,4-tetrahydroisoquinoline], the IC50 in the assay with human platelet [1] is 0.32 µM.

For the compound `CC1c2cc(NC(=O)COC3CCNCC3)ccc2CCN1CCC(=O)O` (centres unmarked) [Ex. 10, 2-(2-carboxyethyl)-1-methyl-7-(piperidine-4-yloxyacetylamino)-1,2,3,4-tetrahydroisoquinoline hydrochloride], in the assay with human platelet [1], the IC50 is 0.38 µM.

As for `CC1CN(CCC(=O)O)Cc2cc(NC(=O)COC3CCNCC3)ccc21` (centres unmarked) [Ex. 11, 2-(2-carboxyethyl)-4-methyl-7-(piperidine-4-yloxyacetylamino)-1,2,3,4-tetrahydroisoquinoline hydrochloride], in the assay with human platelet [1], the IC50 was found to be 0.15 µM.

Take `CC1(C)Cc2ccc(NC(=O)COC3CCNCC3)cc2CN1CCC(=O)O` [Ex. 12, 2-(2-carboxyethyl)-3,3-dimethyl-7-(piperidine-4-yloxyacetylamino)-1,2,3,4-tetrahydroisoquinoline hydrochloride]: the IC50 with human platelet [1] turned out to be 12 µM.

In general, IC50 refers to the concentration needed to halve the response being measured.
